Measured values reported in patent publication US12630498B2 (Genzyme Corporation, priority 2019, dated 2026).

Legend:
[1] = target: T1, CFTR-mediated transepithelial chloride transport in primary human bronchial epithelial cells from a ΔF508 homozygous CF donor (Homo sapiens, UniProt P13569, DEL508-508); test: TECC24 recording of CFTR-mediated transepithelial chloride transport in CF-HBE cells (AUC fold over DMSO); type: cell-based; settings: test agent 10 μM, 48 hours incubation, AUC of forskolin-stimulated IEQ relative to DMSO
T1 construct: Primary human bronchial epithelial cells from a ΔF508 homozygous CF donor; host or cells: primary CF-HBE cells, ΔF508 homozygous donor
T1 sequence (P13569 with tags, fused parts or gaps DEL508-508): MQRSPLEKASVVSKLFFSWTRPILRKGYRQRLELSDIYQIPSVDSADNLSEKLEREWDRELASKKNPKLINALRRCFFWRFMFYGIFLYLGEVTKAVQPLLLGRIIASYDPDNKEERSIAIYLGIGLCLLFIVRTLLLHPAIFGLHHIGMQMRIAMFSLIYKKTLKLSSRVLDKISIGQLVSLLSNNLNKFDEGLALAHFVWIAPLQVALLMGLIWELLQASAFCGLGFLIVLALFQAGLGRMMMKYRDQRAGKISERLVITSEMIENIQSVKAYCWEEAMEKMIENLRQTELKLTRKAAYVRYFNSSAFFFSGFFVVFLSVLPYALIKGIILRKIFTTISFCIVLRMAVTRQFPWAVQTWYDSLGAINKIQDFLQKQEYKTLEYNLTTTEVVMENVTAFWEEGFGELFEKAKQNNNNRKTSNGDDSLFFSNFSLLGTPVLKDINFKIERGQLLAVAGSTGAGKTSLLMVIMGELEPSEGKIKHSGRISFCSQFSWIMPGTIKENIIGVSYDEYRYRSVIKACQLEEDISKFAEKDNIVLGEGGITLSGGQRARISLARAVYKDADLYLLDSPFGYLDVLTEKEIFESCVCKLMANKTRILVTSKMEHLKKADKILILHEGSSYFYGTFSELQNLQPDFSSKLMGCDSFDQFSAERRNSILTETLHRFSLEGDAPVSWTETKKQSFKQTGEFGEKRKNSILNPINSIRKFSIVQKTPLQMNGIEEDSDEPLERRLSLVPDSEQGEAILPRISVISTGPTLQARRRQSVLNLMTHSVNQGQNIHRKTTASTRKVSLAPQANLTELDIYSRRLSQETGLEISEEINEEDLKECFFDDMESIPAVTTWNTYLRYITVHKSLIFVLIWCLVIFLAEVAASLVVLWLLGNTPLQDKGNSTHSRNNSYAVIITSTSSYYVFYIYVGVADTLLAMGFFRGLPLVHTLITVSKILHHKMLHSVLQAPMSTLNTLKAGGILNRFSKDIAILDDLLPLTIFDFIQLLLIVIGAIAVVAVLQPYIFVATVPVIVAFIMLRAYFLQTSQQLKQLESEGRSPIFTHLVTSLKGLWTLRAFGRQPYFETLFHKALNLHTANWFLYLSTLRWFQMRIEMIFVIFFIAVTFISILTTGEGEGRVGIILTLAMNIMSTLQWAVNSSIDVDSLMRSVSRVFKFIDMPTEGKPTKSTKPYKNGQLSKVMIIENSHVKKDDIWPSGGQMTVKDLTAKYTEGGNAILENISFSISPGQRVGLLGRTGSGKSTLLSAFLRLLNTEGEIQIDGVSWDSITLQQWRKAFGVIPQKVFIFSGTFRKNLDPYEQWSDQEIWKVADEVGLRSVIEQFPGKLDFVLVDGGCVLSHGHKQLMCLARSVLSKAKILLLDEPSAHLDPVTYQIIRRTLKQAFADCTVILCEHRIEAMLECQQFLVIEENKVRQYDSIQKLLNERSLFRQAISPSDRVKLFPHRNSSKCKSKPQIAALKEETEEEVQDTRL
Experimental: Example 316: TECC24 AUC Fold Over DMSO @ 10 uM
The effects of a test agent on CFTR-mediated transepithelial chloride transport was measured using TECC24 recording analysis. Test agents were solubilized in DMSO. Solubilized test agents were mixed with incubation medium containing DMEM/F12, Ultroser G (2%; Crescent Chemical, catalog #67042), Hyclone Fetal Clone II (2%; GE Healthcare, catalog #SH30066.02), bovine brain extract (0.25%; Lonza, catalog #CC-4098), insulin (2.5 μg/mL), IL-13 (10 ng/mL), hydrocortisone (20 nM), transferrin (2.5 μg/mL), triiodothyronine (500 nM), ethanolamine (250 nM), epinephrine (1.5 μM), phosphoethanolamine (250 nM), and retinoic acid (10 nM). Primary human bronchial epithelial cells from a ΔF508 homozygous CF donor (CF-HBE cells; from University of North Carolina Cystic Fibrosis Tissue Procurement Center), grown on Transwell HTS 24-well cell culture inserts (Costar, catalog #3378), were exposed to test agents or controls dissolved in incubation medium. The CF-HBE cells were cultured at 36.5° C. for 48 hours before TECC24 recordings were performed in the presence or absence of test agent, a positive control or vehicle (DMSO).
Following incubation, the transwell cell culture inserts containing the test agent or control-treated CF-HBE cells were loaded onto a TECC24 apparatus (TECC v7 or MTECC v2; EP Design) to record the transepithelial voltage (VT) and resistance (TEER) using 4 AgCl electrodes per well configured in current-clamp mode. The apical and basolateral bath solutions both contained (in mM) 140 NaCl, 5 KCl, 2 CaCl2), 1 MgCl2, 10 Hepes, and 10 glucose (adjusted to pH 7.4 with NaOH). To inhibit basal Na+ absorption, the ENaC inhibitor benzamil (10 μM) was added to the bath. Then, the adenylate cyclase activator, forskolin (10 μM), was added to the bath to activate CFTR. The forskolin-stimulated Cl-transport was halted by addition of CFTR inhibitor-172 (20 μM) to the bath at the end of the experiment to confirm specificity. VT and TEER recordings were digitally acquired at routine intervals using TECC or MTECC software (EP Design). VT and TEER were transformed into equivalent transepithelial Cl-current (IEQ), and the Area Under the Curve (AUC) of the IEQ time course between forskolin and CFTR inhibitor-172 addition was generated using Excel (Microsoft). Efficacy is expressed as the ratio of the test agent AUC divided by vehicle AUC. EC50s based on AUC are generated using the non-linear regression log(agonist) vs. response function in Prism software (GraphPad) with Hill Slope fixed=1.
If a test agent increased the AUC of the forskolin-stimulated IEQ relative to vehicle in CF-HBE cells, and this increase was inhibited by CFTR inhibitor-172, then the test agent was considered a CFTR corrector.

[2] = target: T2, human Cystic Fibrosis Transmembrane Conductance Regulator (CFTR) harboring the ΔF508 mutation (Homo sapiens, UniProt P13569, DEL508-508); test: H441 cell ΔF508-CFTR-HRP cell surface assay (Emax and EC50); type: cell-based; settings: for Emax: NCI-H441, NA = Not active
T2 construct: expressed in transfected cells; host or cells: H441 carcinoma line (G418-selected)
T2 sequence (P13569 with tags, fused parts or gaps DEL508-508): as above
Outline: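 H441 and 41o- bronchial epithelial cells expressing ΔF508-CFTR with an extracellular-loop-4 HRP tag were treated with a 15-point compound series (24.5–0.001 μM) for two nights, H441 at 27° C, 41o- at 37° C with 0.0005 mg/ml doxycycline. Surface HRP luminescence read; % of maximum VX809 signal and EC50 derived.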

Structure (SMILES) | TECC24 AUC fold over DMSO @10 μM [1] | EC50 [2] [nM] | Emax [2] [%]
CC1(C(NC(=O)c2ccc3ccccc3c2OCc2ccc(S(F)(F)(F)(F)F)cc2)C(=O)O)CC1 (stereo not shown) [Example 68, 2-(1-methylcyclopropyl)-2-(1-((4-(pentafluoro-l6-sulfanyl)benzyl)oxy)-2-naphthamido)acetic Acid] | C (“C” refers to AUC @10 uM <4) | 1900 | 104
CC1(C(NC(=O)c2ccc3cc(F)ccc3c2OCc2ccc(SC(F)(F)F)cc2)C(=O)O)CCCCC1 (stereo not shown) [Example 69, 2-(6-fluoro-1-((4-((trifluoromethyl)thio)benzyl)oxy)-2-naphthamido)-2-(1-methylcyclohexyl)acetic Acid] | C (“C” refers to AUC @10 uM <4) | 400 | 57.7
CC1(C(NC(=O)c2ccc3ccccc3c2OCc2ccc(S(=O)(=O)C(F)(F)F)cc2)C(=O)O)CCCCC1 (stereo not shown) [Example 77, 2-(1-methylcyclohexyl)-2-(1-((4-((trifluoromethyl)sulfonyl)benzyl)oxy)-2-naphthamido)acetic Acid] | C (“C” refers to AUC @10 uM <4) | 700 | 78.9
CCC(C)(C)[C@H](NC(=O)c1ccc2ccccc2c1OCc1ccc(C(F)(F)F)cc1)C(=O)O [Example 78, (S)-3,3-dimethyl-2-(1-((4-(trifluoromethyl)benzyl)oxy)-2-naphthamido)pentanoic Acid] | A (“A” refers to AUC @10 uM >6) | 400 | 242
CC1(C(NC(=O)c2ccc3ccccc3c2OCc2ccc(C(F)(F)F)cc2)C(=O)O)CCCCC1 (stereo not shown) [Example 80, 2-(1-methylcyclohexyl)-2-(1-((4-(trifluoromethyl)benzyl)oxy)-2-naphthamido)acetic Acid] | C (“C” refers to AUC @10 uM <4) | 400 | 195
CC(C)(C)[C@H](NC(=O)c1ccc2cc(F)ccc2c1OCc1ccc(S(F)(F)(F)(F)F)cc1)C(=O)O [Example 81, (S)-2-(6-fluoro-1-((4-(pentafluoro-16-sulfanyl)benzyl)oxy)-2-naphthamido)-3,3-dimethylbutanoic Acid] | A (“A” refers to AUC @10 uM >6) | 700 | 91.9
O=C(N[C@@H](CCc1ccccc1)C(=O)O)c1ccc2ccccc2c1OCc1ccc(C(F)(F)F)cc1 [Example 88, (S)-4-phenyl-2-(1-((4-(trifluoromethyl)benzyl)oxy)-2-naphthamido)butanoic Acid] | C (“C” refers to AUC @10 uM <4) | 7300 | 64.4
O=C(N[C@@H](Cc1ccccc1)C(=O)O)c1ccc2ccccc2c1OCc1ccccc1C(F)(F)F [Example 93, (1-((2-(trifluoromethyl)benzyl)oxy)-2-naphthoyl)-L-phenylalanine] | C (“C” refers to AUC @10 uM <4) | – | 13.1
O=C(N[C@@H](Cc1ccccc1)C(=O)O)c1ccc2ccccc2c1OCc1cccc(C(F)(F)F)c1 [Example 95, (1-((3-(trifluoromethyl)benzyl)oxy)-2-naphthoyl)-L-phenylalanine] | C (“C” refers to AUC @10 uM <4) | 16000 | 29.3
O=C(N[C@@H](Cc1ccccc1)C(=O)O)c1ccc2ccccc2c1OCc1ccc(Cl)c(Cl)c1 [Example 99, (1-((3,4-dichlorobenzyl)oxy)-2-naphthoyl)-L-phenylalanine] | C (“C” refers to AUC @10 uM <4) | 5700 | 83.1

Results, then the compound that gave them:

TECC24 AUC fold over DMSO @10 μM [1] | EC50 [2] [nM] | Emax [2] [%] | Structure (SMILES)
C (“C” refers to AUC @10 uM <4) | 600 | 106 | CC(C)(C)[C@H](NC(=O)c1cc(F)c2ccccc2c1OCc1ccc(C(F)(F)F)cc1)C(=O)O [Example 64, (S)-2-(4-fluoro-1-((4-(trifluoromethyl)benzyl)oxy)-2-naphthamido)-3,3-dimethylbutanoic Acid]
A (“A” refers to AUC @10 uM >6) | 800 | 112 | CC(C)(C)[C@H](NC(=O)c1ccc2ccccc2c1OCc1ccc(S(F)(F)(F)(F)F)cc1)C(=O)O [Example 67, (S)-3,3-dimethyl-2-(1-((4-(pentafluoro-l6-sulfanyl)benzyl)oxy)-2-naphthamido)butanoic Acid]
C (“C” refers to AUC @10 uM <4) | 800 | 272 | CC(C)(C)[C@H](NC(=O)c1ccc2ccccc2c1OCc1ccc(C(F)(F)F)cc1F)C(=O)O [Example 70, (S)-2-(1-((2-fluoro-4-(trifluoromethyl)benzyl)oxy)-2-naphthamido)-3,3-dimethylbutanoic Acid]
C (“C” refers to AUC @10 uM <4) | 3700 | 144 | CC(C)(C)[C@H](NC(=O)c1ccc2ccccc2c1OCC1CCCCC1)C(=O)O [Example 72, (S)-2-(1-(cyclohexylmethoxy)-2-naphthamido)-3,3-dimethylbutanoic Acid]
A (“A” refers to AUC @10 uM >6) | 800 | 216 | CC(C)(C)[C@H](NC(=O)c1ccc2ccccc2c1OCc1ccc(C(F)(F)F)cc1)C(=O)O [Example 74]
B (“B” refers to AUC @10 uM between 4-6) | 700 | 94.2 | CC(C)(C)[C@H](NC(=O)c1ccc2cc(F)ccc2c1OCc1ccc(SC(F)(F)F)cc1)C(=O)O [Example 75, (S)-2-(6-fluoro-1-((4-((trifluoromethyl)thio)benzyl)oxy)-2-naphthamido)-3,3-dimethylbutanoic Acid]
B (“B” refers to AUC @10 uM between 4-6) | 500 | 80.5 | CCC(C)(C)[C@H](NC(=O)c1ccc2cc(F)ccc2c1OCc1ccc(SC(F)(F)F)cc1)C(=O)O [Example 84, (S)-2-(6-fluoro-1-((4-((trifluoromethyl)thio)benzyl)oxy)-2-naphthamido)-3,3-dimethylpentanoic Acid]
C (“C” refers to AUC @10 uM <4) | 5600 | 108 | Cc1cc(COc2c(C(=O)N[C@H](C(=O)O)C(C)(C)C)ccc3ccccc23)no1 [Example 86, (S)-3,3-dimethyl-2-(1-((5-methylisoxazol-3-yl)methoxy)-2-naphthamido)butanoic Acid]
C (“C” refers to AUC @10 uM <4) | – | 1.1 | O=C(N[C@@H](Cc1ccccc1)C(=O)O)c1ccc2ccccc2c1OCCc1ccc(C(F)(F)F)cc1 [Example 97, (1-(4-(trifluoromethyl)phenethoxy)-2-naphthoyl)-L-phenylalanine]
C (“C” refers to AUC @10 uM <4) | 7700 | 77.8 | O=C(N[C@@H](Cc1ccc(C(F)(F)F)cc1)C(=O)O)c1ccc2ccccc2c1OCc1ccc(C(F)(F)F)cc1 [Example 104, (S)-2-(1-((4-(trifluoromethyl)benzyl)oxy)-2-naphthamido)-3-(4-(trifluoromethyl)phenyl)propanoic Acid]
C (“C” refers to AUC @10 uM <4) | 10400 | 82.1 | O=C(N[C@@H](Cc1ccc2c(c1)OCO2)C(=O)O)c1ccc2ccccc2c1OCc1ccc(C(F)(F)F)cc1 [Example 106, (S)-3-(benzo[d][1,3]dioxol-5-yl)-2-(1-((4-(trifluoromethyl)benzyl)oxy)-2-naphthamido)propanoic Acid]
